Source: patent publication US20130197080A1, “USE OF TERIFLUNOMIDE FOR TREATING MULTIPLE SCLEROSIS” (SANOFI, priority 2010, published 2013)
Several values for one entry are separate records, joined by “and”; a condition that tells them apart may be missing. Identical values can stand only once.

Tested on: patients with RMS
Assay: TEMSO Phase III trial: safety and tolerability (adverse events, laboratory tests)
Details: for incidence of ALT increase (≧1×ULN) / incidence of ALT ≧3×ULN: laboratory; for proportion of patients with TEAEs potentially related to hypersensitivity/skin disorders: selected SMQs terms; for patients with increased ALT ≧3×ULN and total bilirubin ≧2×ULN: considered non drug-induced
[1] = 7 mg once daily oral, safety population (N = 368)
[2] = 14 mg once daily oral, safety population (N = 358)
[3] = teriflunomide treatment, occurred over the first 3 months, slightly more marked with 14 mg

Experimental: Following a screening phase of up to 4 weeks, eligible patients were randomized (1:1:1) to receive a once-daily oral dose of placebo or teriflunomide, 7 mg or 14 mg, for 108 weeks. Randomization was stratified by baseline EDSS score (≦3.5 and >3.5) and by trial site. Participants successfully completing the study were eligible to enter a long-term extension.
Safety was evaluated by the occurrence of adverse events reported by the patient or the investigator. Laboratory tests were performed during screening, at baseline, and then every 2 weeks for the first 24 weeks, then every 6 weeks until study completion. Physical and neurologic examinations were performed at Week 12 and then every 24 weeks. An abdominal ultrasound to assess pancreatic abnormalities was done prior to the study and then every 24 weeks.
Laboratory testing of liver function and complete blood cell count with differential were performed at baseline, then every 2 weeks for the first 24 weeks of treatment and every 6 weeks thereafter. Patients with any of the following adverse events were discontinued from the study and were subsequently followed-up: • Any confirmed increase (repeated value within 48 hours) in alanine aminotransferase (≧3×ULN) with or without increase in total bilirubin level • Any occurrence of confirmed neutrophil count less than 1.0×10^9 cells/L with or without infection • Any potentially life-threatening cytopenias detected during the follow-up of laboratory abnormalities as per the investigator's judgment
Laboratory testing of pancreatic enzymes was performed at baseline, then every 2 weeks for the first 24 weeks of treatment and every 6 weeks thereafter. An abdominal ultrasound was performed at baseline and then every 24 weeks until study completion. Any suspected abnormal ultrasound was followed up with a CT scan with contrast, or by MRI.
Serum pregnancy testing was performed at baseline, Week 10, Week 24 and then every 12 weeks thereafter. If the pregnancy test was positive, the study medication was discontinued, and the physician was required to inform the patient of the risk of pregnancy and to discuss the potential alternatives. If the patient decided to continue with their pregnancy, a washout was required. If the patient decided not to continue with their pregnancy, the study medication could be resumed 2 weeks after termination of the pregnancy.

## C/C(O)=C(\C#N)C(=O)Nc1ccc(C(F)(F)F)cc1 [teriflunomide, (Z)-2-cyano-3-hydroxy-but-2-enoic acid-(4′-trifluoromethylphenyl)-amide]
7 mg (N = 368)
  Serious adverse event, Blood disorders: Anemia: 1 (0.3%) n (%)
  Serious adverse event, Blood disorders: Neutropenia: 0 n (%)
  Serious adverse event, Blood disorders: Neutrophil count decreased: 0 n (%)
  Serious adverse event, Hepatic and hepatobiliary disorders: Alanine aminotransferase increased: 5 (1.4%) n (%)
  Serious adverse event, Hepatic and hepatobiliary disorders: Hepatic enzyme increased: 0 n (%)
  Serious adverse event, Hepatic and hepatobiliary disorders: Hepatitis toxic: 0 n (%)
  Serious adverse event, Hepatic and hepatobiliary disorders: Liver injury: 1 (0.3%) n (%)
  Serious adverse event, Hepatic and hepatobiliary disorders: Transaminases increased: 1 (0.3%) n (%)
  Serious adverse event, Infections: Appendicitis: 2 (0.5%) n (%)
  Serious adverse event, Infections: Bacteremia: 0 n (%)
  Serious adverse event, Infections: Cellulitis: 0 n (%)
  Serious adverse event, Infections: Cytomegalovirus hepatitis: 0 n (%)
  Serious adverse event, Infections: Erysipelas: 1 (0.3%) n (%)
  Serious adverse event, Infections: Gastroenteritis: 0 n (%)
  Serious adverse event, Infections: Hepatitis C: 0 n (%)
  Serious adverse event, Infections: Herpes zoster: 0 n (%)
  Serious adverse event, Infections: Infected cyst: 1 (0.3%) n (%)
  Serious adverse event, Infections: Lung infection: 0 n (%)
  Serious adverse event, Infections: Pneumonia: 2 (0.5%) n (%)
  Serious adverse event, Infections: Pyelonephritis: 0 n (%)
  Serious adverse event, Infections: Renal abscess: 0 n (%)
  Serious adverse event, Infections: Urinary tract infection: 0 n (%)
  Serious adverse event, Infections: Urinary tract infection enterococcal: 0 n (%)
  Serious adverse event, Malignant neoplasms: Breast cancer: 0 n (%)
  Serious adverse event, Malignant neoplasms: Cervix carcinoma stage 0: 0 n (%)
  Serious adverse event, Malignant neoplasms: Thyroid cancer: 0 n (%)
  Serious adverse event, Pancreatic disorders: Lipase increased: 2 (0.5%) n (%)
  Serious adverse event, Pancreatic disorders: Pancreatitis: 0 n (%)
  TEAE potentially related to hypersensitivity/skin reactions: Erythema: 7 (1.9%) n (%)
  TEAE potentially related to hypersensitivity/skin reactions: Pruritus: 13 (3.5%) n (%)
  TEAE potentially related to hypersensitivity/skin reactions: Pruritus rash: 2 (0.5%) n (%)
  TEAE potentially related to hypersensitivity/skin reactions: Urticaria: 4 (1.1%) n (%)
7 mg group
  Polyneuropathy incidence: 0.3%
  TEAEs (patients): 89.1%
  TEAEs leading to treatment discontinuation: 9.8%
  diarrhea leading to treatment discontinuation: 0.3%
  hair thinning/decreased hair density leading to treatment discontinuation: 0.5%
  incidence of serious hepatic disorders (ALT >8×ULN and/or ALT >3×ULN with total bilirubin >3 mg/dL and/or any hepatic event with seriousness criterion): 1.9%
  incidence of serious infections: 1.6%
  induced abortions among pregnancies during the trial: 5
  nausea leading to treatment discontinuation: 0.3%
  neutropenia disorders (patients): 2.2%
  patients with mild or moderate peripheral neuropathy with conduction confirmation: four
  proportion of patients experiencing any bone marrow TEAE: 9.8%
  proportion of patients with TEAEs related to blood pressure increase: 5.4%
  serious TEAEs (patients): 14.1%
  incidence of ALT increase (≧1×ULN): 54.0%
  incidence of ALT ≧3×ULN: 6.3%
  proportion of patients with TEAEs potentially related to hypersensitivity/skin disorders: 10.3%
  patients with increased ALT ≧3×ULN and total bilirubin ≧2×ULN: one
7 mg group, single patient
  neutrophil count decrease in case of neutropenia leading to treatment discontinuation: 8.7e+08 L⁻¹
7 mg group, single patient, three days after treatment discontinuation
  neutrophil count after recovery: 1.34e+09 L⁻¹
[1]
  Any event leading to death: 0 n (%)
  Any treatment emergent adverse event leading to discontinuation of study drug: 36 (9.8) n (%)
  Any treatment emergent serious adverse event: 52 (14.1) n (%)
  At least one treatment emergent adverse event: 328 (89.1) n (%)
  TEAE Alanine aminotransferase increased (reported as adverse event by the investigator): 44 (12.0) no. of patients (%)
  TEAE Back pain: 39 (10.6) no. of patients (%)
  TEAE Diarrhea: 54 (14.7) no. of patients (%)
  TEAE Fatigue: 47 (12.8) no. of patients (%)
  TEAE Hair thinning/decreased hair density (MedDRA: alopecia): 38 (10.3) no. of patients (%)
  TEAE Headache: 81 (22.0) no. of patients (%)
  TEAE Nasopharyngitis: 94 (25.5) no. of patients (%)
  TEAE Nausea: 33 (9.0) no. of patients (%)
  TEAE Pain in extremity: 26 (7.1) no. of patients (%)
  TEAE Urinary tract infection: 27 (7.3) no. of patients (%)
14 mg (N = 358)
  Serious adverse event, Blood disorders: Anemia: 0 n (%)
  Serious adverse event, Blood disorders: Neutropenia: 1 (0.3%) n (%)
  Serious adverse event, Blood disorders: Neutrophil count decreased: 1 (0.3%) n (%)
  Serious adverse event, Hepatic and hepatobiliary disorders: Alanine aminotransferase increased: 5 (1.4%) n (%)
  Serious adverse event, Hepatic and hepatobiliary disorders: Hepatic enzyme increased: 1 (0.3%) n (%)
  Serious adverse event, Hepatic and hepatobiliary disorders: Hepatitis toxic: 1 (0.3%) n (%)
  Serious adverse event, Hepatic and hepatobiliary disorders: Liver injury: 0 n (%)
  Serious adverse event, Hepatic and hepatobiliary disorders: Transaminases increased: 1 (0.3%) n (%)
  Serious adverse event, Infections: Appendicitis: 0 n (%)
  Serious adverse event, Infections: Bacteremia: 1 (0.3%) n (%)
  Serious adverse event, Infections: Cellulitis: 0 n (%)
  Serious adverse event, Infections: Cytomegalovirus hepatitis: 1 (0.3%) n (%)
  Serious adverse event, Infections: Erysipelas: 0 n (%)
  Serious adverse event, Infections: Gastroenteritis: 1 (0.3%) n (%)
  Serious adverse event, Infections: Hepatitis C: 0 n (%)
  Serious adverse event, Infections: Herpes zoster: 0 n (%)
  Serious adverse event, Infections: Infected cyst: 0 n (%)
  Serious adverse event, Infections: Lung infection: 0 n (%)
  Serious adverse event, Infections: Pneumonia: 0 n (%)
  Serious adverse event, Infections: Pyelonephritis: 3 (0.8%) n (%)
  Serious adverse event, Infections: Renal abscess: 1 (0.3%) n (%)
  Serious adverse event, Infections: Urinary tract infection: 1 (0.3%) n (%)
  Serious adverse event, Infections: Urinary tract infection enterococcal: 1 (0.3%) n (%)
  Serious adverse event, Malignant neoplasms: Breast cancer: 0 n (%)
  Serious adverse event, Malignant neoplasms: Cervix carcinoma stage 0: 1 (0.3%) n (%)
  Serious adverse event, Malignant neoplasms: Thyroid cancer: 0 n (%)
  Serious adverse event, Pancreatic disorders: Lipase increased: 0 n (%)
  Serious adverse event, Pancreatic disorders: Pancreatitis: 0 n (%)
  TEAE potentially related to hypersensitivity/skin reactions: Erythema: 4 (1.1%) n (%)
  TEAE potentially related to hypersensitivity/skin reactions: Pruritus: 10 (2.8%) n (%)
  TEAE potentially related to hypersensitivity/skin reactions: Pruritus rash: 1 (0.3%) n (%)
  TEAE potentially related to hypersensitivity/skin reactions: Urticaria: 3 (0.8%) n (%)
14 mg group
  Polyneuropathy incidence: 0.8%
  TEAEs (patients): 90.8%
  TEAEs leading to treatment discontinuation: 10.9%
  diarrhea leading to treatment discontinuation: 0.3%
  hair thinning/decreased hair density leading to treatment discontinuation: 1.4%
  incidence of serious hepatic disorders (ALT >8×ULN and/or ALT >3×ULN with total bilirubin >3 mg/dL and/or any hepatic event with seriousness criterion): 2.5%
  incidence of serious infections: 2.5%
  induced abortions among pregnancies during the trial: 1
  nausea leading to treatment discontinuation: 0.0%
  neutropenia disorders (patients): 4.5%
  patients who discontinued treatment due to pruritus: One
  patients with mild or moderate peripheral neuropathy with conduction confirmation: six
  proportion of patients experiencing any bone marrow TEAE: 7.5%
  proportion of patients with TEAEs related to blood pressure increase: 5.0%
  serious TEAEs (patients): 15.9%
  spontaneous abortions among pregnancies during the trial: 3
  incidence of ALT increase (≧1×ULN): 57.3%
  incidence of ALT ≧3×ULN: 6.7%
  proportion of patients with TEAEs potentially related to hypersensitivity/skin disorders: 11.2%
  patients with increased ALT ≧3×ULN and total bilirubin ≧2×ULN: one
14 mg group, two patients
  neutrophil count in cases of moderate neutrophil count decrease (serious AEs): 9.5e+08 L⁻¹ and 9e+08 L⁻¹
14 mg group, two patients, a few days later, treatment continuing
  neutrophil count after recovery: 2.09e+09 L⁻¹ and 3.82e+09 L⁻¹
14 mg group, cervix carcinoma in situ (stage 0) after 1.5 years treatment
  patients with malignant neoplasms: one
[2]
  Any event leading to death: 0 n (%)
  Any treatment emergent adverse event leading to discontinuation of study drug: 39 (10.9) n (%)
  Any treatment emergent serious adverse event: 57 (15.9) n (%)
  At least one treatment emergent adverse event: 325 (90.8) n (%)
  TEAE Alanine aminotransferase increased (reported as adverse event by the investigator): 51 (14.2) no. of patients (%)
  TEAE Back pain: 41 (11.5) no. of patients (%)
  TEAE Diarrhea: 64 (17.9) no. of patients (%)
  TEAE Fatigue: 52 (14.5) no. of patients (%)
  TEAE Hair thinning/decreased hair density (MedDRA: alopecia): 47 (13.1) no. of patients (%)
  TEAE Headache: 67 (18.7) no. of patients (%)
  TEAE Nasopharyngitis: 93 (26.0) no. of patients (%)
  TEAE Nausea: 49 (13.7) no. of patients (%)
  TEAE Pain in extremity: 33 (9.2) no. of patients (%)
  TEAE Urinary tract infection: 37 (10.3) no. of patients (%)
Across groups
  serious opportunistic infections: no serious opportunistic infections observed
Across the three treatment groups
  increases in amylase and lipase (mean change from baseline): No increases
All groups
  deaths: No deaths occurred
  treatment discontinuation due to increased blood pressure: No patient discontinued treatment
On teriflunomide
  neutrophil count in three cases of moderate neutropenia: 9e+08 L⁻¹
Teriflunomide groups
  adverse event potentially attributed to interstitial lung disease (SMQ terms): No adverse event
  average increase in diastolic blood pressure: < 2 mmHg
  average increase in systolic blood pressure: < 4 mmHg
[3]
  mean reduction from baseline in lymphocyte counts: 3e+08 L⁻¹
  mean reduction from baseline in neutrophil counts: 1e+09 L⁻¹
